In BindingDB's records for doi:10.1021/jm401798r (University of Michigan, 2014):

How the values were obtained:
D(2) dopamine receptor = D(2) dopamine receptor (Homo sapiens, UniProt P14416); test: Displacement of [3H]N-methylspiperone from human dopamine D2 receptor expressed in HEK293 cells after 1 hr by liquid scintillation counting analysis
D(3) dopamine receptor [1] = target: D(3) dopamine receptor (Homo sapiens, UniProt P35462); test: Displacement of [3H]N-methylspiperone from human dopamine D3 receptor expressed in HEK293 cells after 1 hr by liquid scintillation counting analysis
Sequence of D(3) dopamine receptor (Homo sapiens, UniProt P35462) (P35462 as listed by the source): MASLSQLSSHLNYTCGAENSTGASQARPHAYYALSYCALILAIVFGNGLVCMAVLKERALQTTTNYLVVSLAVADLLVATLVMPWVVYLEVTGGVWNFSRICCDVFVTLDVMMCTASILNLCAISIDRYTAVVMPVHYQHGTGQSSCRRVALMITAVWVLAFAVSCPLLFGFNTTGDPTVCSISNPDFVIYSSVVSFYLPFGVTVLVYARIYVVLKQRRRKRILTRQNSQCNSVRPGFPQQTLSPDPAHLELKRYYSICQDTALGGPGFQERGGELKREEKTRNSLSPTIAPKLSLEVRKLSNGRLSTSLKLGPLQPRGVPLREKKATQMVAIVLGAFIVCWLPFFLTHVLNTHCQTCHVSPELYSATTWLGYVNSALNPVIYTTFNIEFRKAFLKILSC

D(3) dopamine receptor [2] = target: D(3) dopamine receptor (Rattus norvegicus, UniProt P19020); test: Displacement of [3H]R-(+)-7-OHDPAT from dopamine D3 receptor in Sprague-Dawley rat ventral striatum after 90 mins
Sequence of D(3) dopamine receptor (Rattus norvegicus, UniProt P19020) (P19020 whole entry): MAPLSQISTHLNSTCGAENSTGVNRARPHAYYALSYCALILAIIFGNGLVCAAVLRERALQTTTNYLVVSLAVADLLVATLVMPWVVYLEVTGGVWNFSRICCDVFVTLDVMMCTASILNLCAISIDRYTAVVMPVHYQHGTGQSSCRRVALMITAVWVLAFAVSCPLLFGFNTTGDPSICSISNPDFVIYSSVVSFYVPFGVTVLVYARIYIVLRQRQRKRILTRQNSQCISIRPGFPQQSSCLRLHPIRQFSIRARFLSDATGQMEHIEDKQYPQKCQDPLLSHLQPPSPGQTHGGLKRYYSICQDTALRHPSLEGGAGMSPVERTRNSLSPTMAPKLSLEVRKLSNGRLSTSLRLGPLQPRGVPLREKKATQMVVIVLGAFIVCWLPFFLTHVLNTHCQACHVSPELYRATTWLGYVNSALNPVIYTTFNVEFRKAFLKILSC

Sequence of D(2) dopamine receptor (P14416 whole entry): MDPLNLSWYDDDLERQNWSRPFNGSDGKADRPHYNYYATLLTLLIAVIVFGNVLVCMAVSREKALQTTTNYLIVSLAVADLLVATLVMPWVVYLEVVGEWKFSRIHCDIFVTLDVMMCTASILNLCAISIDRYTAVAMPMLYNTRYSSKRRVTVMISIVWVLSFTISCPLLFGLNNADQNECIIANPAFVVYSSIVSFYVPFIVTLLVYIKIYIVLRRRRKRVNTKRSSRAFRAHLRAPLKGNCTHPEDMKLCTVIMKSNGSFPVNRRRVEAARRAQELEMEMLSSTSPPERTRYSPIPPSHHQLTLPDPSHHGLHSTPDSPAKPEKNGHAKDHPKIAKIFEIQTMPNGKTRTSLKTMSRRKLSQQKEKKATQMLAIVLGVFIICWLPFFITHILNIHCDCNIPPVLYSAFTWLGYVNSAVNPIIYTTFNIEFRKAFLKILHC

Row | Ki (D(2) dopamine receptor) | Ki (D(3) dopamine receptor [1]) | Ki (D(3) dopamine receptor [2]) | Structure (SMILES)
1 | 1220 nM | 38 nM | 28 nM | CCCN(CC[C@]1(O)C[C@@H](NC(=O)c2ccc3ccccc3c2)C1)[C@H]1C[C@@H]1c1cccc(Cl)c1
2 | 923 nM | 22 nM | 19 nM | CCCN(CC[C@]1(O)C[C@@H](NC(=O)c2ccc3ccccc3c2)C1)[C@H]1C[C@@H]1c1ccccc1Cl

Row | Structure (SMILES) | Ki (D(2) dopamine receptor) | Ki (D(3) dopamine receptor [1]) | Ki (D(3) dopamine receptor [2])
3 | CCCN(CC[C@]1(O)C[C@@H](NC(=O)c2ccc3ccccc3c2)C1)C1CC1c1ccc(Cl)cc1 (some centres undefined) | 667 nM | 2.6 nM | 4.6 nM
